The values below come from patent US11771711B2, “Substituted pyridines as DNMT1 inhibitors” (GlaxoSmithKline Intellectual Property Development Limited, priority 2021, dated 2023).

The nature of one data set: physchem. The settings on record: FaSSIF buffer, pH 6.5, fassif, thermodynamic from solid.
The target in the next data set is Full-length human DNMT1 (Homo sapiens (Human), UniProt P26358). The experiment in a line: DNMT1 Scintillation Proximity Assay (SPA) - Assay A. Type of data set: biochemical. The settings on record: footnote a: DNMT1 full length. Here is the method: DNMT1 Scintillation Proximity Assay (SPA)—Assay A (Full-Length Human DNMT1)
This assay used Scintillation Proximity technology in a signal increase format to evaluate the potency of compounds. Full-length human DNMT1, hemi-methylated DNA duplex*, and tritiated SAM were utilized to monitor activity. Assay plate creation consisted of the following parameters: 500 nL of an 11 pt, 3-fold serial dilution of compound was stamped into a 96 well Costar plate (#3884). Assay buffer mix was made on the day of assay consisting of: 20 mM Tris pH 7.5, 1 mM DTT, 1 mM EDTA, and 5% glycerol. A 2× enzyme mix was then prepared consisting of 30 nM DNMT1 protein (full length human DNMT, made in house) in assay buffer. The 2× substrate mix was made last, and consisted of 160 nM 40mer hemi-methylated DNA*, 0.48 μM ^3H-SAM, and 2.92 μM cold SAM in assay buffer (^3H-SAM is added last). The quench (1 mM SAH) was made in bulk and frozen at −20 until the time of use. Ten uL of the 2× substrate mix was added to the entire plate using a multichannel electronic pipette. Plate was shaken for at least 10s between additions to ensure mixing. Next, 20 uL of 2× quench mix was added to column 12 using a multichannel pipette (shake plate). Using a multichannel electronic pipette, 10 uL of 2× enzyme mix was added to the full plate starting with column […] (column 12 last to avoid pre-quench carryover). Plates were incubated on the shaker for 30 minutes with the plate covered. At the end of the incubation period, 20 uL of quench mix were added to all wells except column 12 (shake plate) followed by the addition of 20 uL of 3 mg/mL PerkinElmer PEI PVT SPA Beads (Cat. #RPNQ0097) diluted in DNAse free water and allowed to shake for at least 30 minutes. Plates were sealed with a clear seal and centrifuged at 500 rpm for 1 min. Plates were read on a MicroBeta (Perkin Elmer, read for ^3H (1 min/well).
Microsoft Excel was used to analyze the data up to Vi/Vo and GraFit was used to fit the data. Responses were normalized to the uninhibited (DMSO) and pre-quenched controls within each plate. Dose-response curves were analyzed using a three-parameter logistic fit with Ymin constrained to 0 and results were expressed as IC50 values.
Final assay conditions: 20 mM Tris (Hampton Research—HR-937-06), pH 7.5, 1 mM DTT (Invitrogen—P2325), 1 mM EDTA (Invitrogen—AM9260G), 5% Glycerol (Teknova—G1796), 0.02% Pluronic F127 (Life Technologies—P6866), 15 nM DNMT1 (full length human DNMT1—GSK made in-house), 240 nM ^3H-SAM (PerkinElmer—NET155H001MC), 1460 nM cold SAM (New England Biolabs—B9003S) and 80 nM 40-mer hemi-methylated DNA Oligonucleotide (Integrated DNA Technologies—custom), 1 mM SAH (Sigma A9384), and 1 mg/mL PEI PVT SPA Beads (Perkin Elmer RPNQ0097) resuspended in water.
On the technique in general: Scintillation proximity formats need no separation of bound from free tracer.

A short description of data set [1]: Drug exposure in blood and tumor of mice bearing SKM-1 xenografts (PK/PD study). Type of data set: in vivo, mouse. The settings on record: 22, 67 or 200 mg/kg BID PO; blood and tumor two hours following the 20th dose. Here is the method: SKM-1 cells (3.8×10^6) suspended in 50% Matrigel (BD Biosciences)/50% Dulbecco's phosphate-buffered saline (DPBS) were implanted in 8-11 week old female NOD.CB17-Prkdc1NCrCrl mice. Tumors were measured with digital calipers, and stratified block randomized according to tumor size (P value >0.9085) into treatment groups with average tumor volumes of 219 or 1076 mm^3 for efficacy or PK/PD studies respectively. GSK4172239A was formulated weekly in Sterile water. Mice were measured twice weekly for body weight and tumor size. Dosing started on the day after randomization. Animals were dosed twice daily (BID) via oral gavage (PO) with Example 1 at 22, 67, or 200 mg/kg. […] Both samples were precipitated with acetonitrile, and concentrations of Example 4 were determined by HPLC—MS/MS (Waters Acquity uPLC, Sciex API5000). SKM-1 tumor and mouse bone marrow samples were assessed using a global DNA methylation (5-methylcytosine) LC-MS/MS assay. […] An HPLC—MS/MS method was optimized to quantify 2′-deoxycytidine and 5-methyl-2′-deoxycytidine. […] Concentrations of 2′-deoxycytidine and 5-methyl-2′-deoxycytidine were determined using standard curves generated from pure 2′-deoxycytidine (Sigma-Aldrich) and 5-methyl-2′-deoxycytidine (Santa Cruz Biotechnology). […]
Example 1 was evaluated in immunocompromised mice bearing subcutaneous SKM-1 human AML (acute myeloid leukemia) xenografts. […]

Data set [2] concerns SKM-1 human AML (acute myeloid leukemia) xenografts. The experiment in a line: Anti-tumor efficacy in subcutaneous SKM-1 human AML xenografts. Type of data set: in vivo, mouse. Here is the method: (§1) SKM-1 cells (3.8×10^6) suspended in 50% Matrigel (BD Biosciences)/50% Dulbecco's phosphate-buffered saline (DPBS) were implanted in 8-11 week old female NOD.CB17-Prkdc1NCrCrl mice. Tumors were measured with digital calipers, and stratified block randomized according to tumor size (P value >0.9085) into treatment groups with average tumor volumes of 219 or 1076 mm^3 for efficacy or PK/PD studies respectively. GSK4172239A was formulated weekly in Sterile water. Mice were measured twice weekly for body weight and tumor size. Dosing started on the day after randomization. Animals were dosed twice daily (BID) via oral gavage (PO) with Example 1 at 22, 67, or 200 mg/kg. A maximal tumor burden of 2,500 mm^3 for two consecutive measurements was not exceeded during the studies. For the PK/PD study, tumor, blood, and bone marrow were collected two hours following the 20th dose (10 days). For PK, blood was mixed 50:50 with water while tumor was homogenized (Omni hand-held homogenizer) in sterile water at a 1:4 dilution. Both samples were precipitated with acetonitrile, and concentrations of Example 4 were determined by HPLC—MS/MS (Waters Acquity uPLC, Sciex API5000). SKM-1 tumor and mouse bone marrow samples were assessed using a global DNA methylation (5-methylcytosine) LC-MS/MS assay. […] An HPLC—MS/MS method was optimized to quantify 2′-deoxycytidine and 5-methyl-2′-deoxycytidine. […] Concentrations of 2′-deoxycytidine and 5-methyl-2′-deoxycytidine were determined using standard curves generated from pure 2′-deoxycytidine (Sigma-Aldrich) and 5-methyl-2′-deoxycytidine (Santa Cruz Biotechnology). […]
(§2) Example 1 was evaluated in immunocompromised mice bearing subcutaneous SKM-1 human AML (acute myeloid leukemia) xenografts. […] In addition, the mechanistic consequence of inhibiting DNMT1, a decrease in DNA methylation, was assessed globally using a LC-MS/MS-based 5-methylcytosine assay. […] In a subsequent study, to examine anti-tumor efficacy, tumor volume was measured (n=10 animals per group) twice weekly for 4 weeks while on treatment.
In general terms: In xenograft studies the graft and the host belong to different species.

The subject of data set [3] is global DNA methylation (5-methylcytosine). The experiment in a line: Global DNA methylation (5-methylcytosine) LC-MS/MS assay in SKM-1 tumor and mouse bone marrow. Type of data set: in vivo. Here is the method:
as §1, §2

Sequence of Full-length human DNMT1 (P26358 whole entry): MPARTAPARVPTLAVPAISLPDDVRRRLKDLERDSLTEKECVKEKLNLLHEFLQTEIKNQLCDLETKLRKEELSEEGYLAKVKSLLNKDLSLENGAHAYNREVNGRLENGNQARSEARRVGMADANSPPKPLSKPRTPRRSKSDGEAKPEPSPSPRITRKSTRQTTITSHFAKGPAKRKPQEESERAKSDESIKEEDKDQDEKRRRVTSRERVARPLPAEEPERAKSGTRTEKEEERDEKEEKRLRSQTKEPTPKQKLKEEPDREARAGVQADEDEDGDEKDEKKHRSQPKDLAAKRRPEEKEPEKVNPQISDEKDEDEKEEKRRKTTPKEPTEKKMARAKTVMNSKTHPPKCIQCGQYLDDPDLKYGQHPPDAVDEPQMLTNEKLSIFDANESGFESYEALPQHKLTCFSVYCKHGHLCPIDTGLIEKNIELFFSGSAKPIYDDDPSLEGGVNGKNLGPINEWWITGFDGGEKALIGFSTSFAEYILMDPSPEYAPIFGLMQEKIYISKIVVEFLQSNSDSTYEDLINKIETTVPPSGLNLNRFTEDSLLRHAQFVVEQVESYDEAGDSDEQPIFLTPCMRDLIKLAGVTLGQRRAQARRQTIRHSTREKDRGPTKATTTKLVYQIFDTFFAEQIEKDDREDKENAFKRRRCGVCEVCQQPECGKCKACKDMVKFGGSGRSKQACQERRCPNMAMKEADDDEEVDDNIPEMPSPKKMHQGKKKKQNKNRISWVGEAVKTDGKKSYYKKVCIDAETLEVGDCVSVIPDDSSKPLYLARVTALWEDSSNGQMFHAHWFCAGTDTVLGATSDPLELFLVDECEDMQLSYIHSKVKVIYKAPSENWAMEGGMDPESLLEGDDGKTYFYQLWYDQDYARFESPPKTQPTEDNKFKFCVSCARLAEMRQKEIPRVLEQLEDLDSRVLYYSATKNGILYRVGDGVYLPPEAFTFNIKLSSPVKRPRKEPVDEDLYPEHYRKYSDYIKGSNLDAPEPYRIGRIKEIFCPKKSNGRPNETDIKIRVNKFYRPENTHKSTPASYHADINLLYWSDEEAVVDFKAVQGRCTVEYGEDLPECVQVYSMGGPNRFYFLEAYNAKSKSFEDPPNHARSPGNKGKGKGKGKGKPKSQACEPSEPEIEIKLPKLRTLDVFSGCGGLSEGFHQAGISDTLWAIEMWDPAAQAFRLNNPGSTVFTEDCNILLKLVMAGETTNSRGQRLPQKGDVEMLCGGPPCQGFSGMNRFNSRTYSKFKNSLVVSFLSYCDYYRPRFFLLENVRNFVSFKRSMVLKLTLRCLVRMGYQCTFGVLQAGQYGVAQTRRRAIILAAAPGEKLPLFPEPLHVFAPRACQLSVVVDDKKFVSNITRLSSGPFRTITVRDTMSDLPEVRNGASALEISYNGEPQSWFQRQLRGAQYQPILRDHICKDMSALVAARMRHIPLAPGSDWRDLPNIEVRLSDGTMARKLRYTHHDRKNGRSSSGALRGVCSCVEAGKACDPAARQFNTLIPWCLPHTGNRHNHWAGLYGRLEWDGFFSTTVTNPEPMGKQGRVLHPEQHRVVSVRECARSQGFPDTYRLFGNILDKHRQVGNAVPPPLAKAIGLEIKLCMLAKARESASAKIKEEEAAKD
Description for physchem: Solubility of Solid Compounds in Fasted Simulated Intestinal Fluid
The solubility of solid compounds in Fasted Simulated Intestinal Fluid (FaSSIF) was determined at pH 6.5 after 4 hour equilibration at room temperature (using procedures described in Sou, T.; Bergström, C. A. S. Automated assays for thermodynamic (equilibrium) solubility determination. Drug Discovery Today: Technologies 2018, 27, 11-19). 1 ml of FaSSIF buffer (3 mM Sodium taurocholate, 0.75 mM lecithin in sodium phosphate buffer at pH6.5) was added to manually weighed 1 mg of solid compound in a 4 ml vial. The resulting suspension was shaken at 900 rpm for 4 hours at room temperature and then transferred to a Multiscreen HTS, 96-well solubility filter plate to separate the residual solid and the filtrate. Quantification of the compound concentration in the filtrate was performed by HPLC-UV using single point calibration of a known concentration of the compound in DMSO. […] The dynamic range of the assay was 1-1000 μg/ml.

By solubility is commonly meant the dissolved amount per volume that the medium holds. A low value points to a poorly soluble substance. Usually IC50 stands for the concentration at which inhibition is half-maximal. On to `CCc1c(C#N)c(S[C@@H](C(=O)NP(=O)(O)O)c2ccc(OS(C)(=O)=O)cc2)nc(N(C)C)c1C#N` [Example 1, (R)-(2-((3,5-dicyano-6-(dimethylamino)-4-ethylpyridin-2-yl)thio)-2-(4-((methylsulfonyl)oxy)phenyl)acetyl)phosphoramidic acid], for which the solubility at 4 h in “physchem” was above 1000 µg/mL. Further, the half-maximal inhibitory concentration (IC50) on Full-length human DNMT1 is 16.1 µM. Also, the “drug exposure (measured as the racemic active moiety Example 4)” value in data set [1] was “dose-proportional and roughly equivalent in blood and tumor”. The compound further yielded a tumor growth inhibition in data set [2] (22 mg/kg BID PO, vs vehicle at day 22) of 35%. Further, in data set [2] (200 mg/kg BID PO, vs vehicle at day 22), the tumor response result is recorded as “marked regression”. In data set [2] (22, 67 or 200 mg/kg BID PO, measured twice weekly for 4 weeks), the tumor volume result is given as “dose-dependent reduction”. The “global DNA methylation in comparison to vehicle” value in data set [3] (22, 67 or 200 mg/kg BID PO, 10 days) is reported as “reduced at all doses”. For the same compound, the “maximal change (reduction) in global DNA methylation in the tumor vs vehicle” value in data set [3] (SKM-1 tumor, 200 mg/kg BID PO, two hours following the 20th dose (10 days)) is recorded as 49%. Besides, in data set [3] (mouse bone marrow, 200 mg/kg BID PO, two hours following the 20th dose (10 days)), the “maximal change (reduction) in global DNA methylation in the bone marrow vs vehicle” value is listed as 47%.
